Experimental data reported in patent publication US9498513B2, “Antimicrobial bacteria strains and uses thereof” (priority 2010, dated 2016).

Experiments:
S. aureus (MRSA) = experiment: Antimicrobial activity against susceptible and resistant strains (dilution); assay type: cell-based, Staphylococcus aureus; conditions: given as dilution ratio; antibiotics 1.28 mg/ml
Experimental: (§1) A concentrated antimicrobial compound (CAC) was prepared as an antimicrobial agent. 2.1 L of an overnight bacterial culture of G346a was centrifuged at 10,000× g for 20 min, and then subject to 0.2 μm filtration. The supernatant was subject to 10-15% TCA precipitation for 1 hour, and then centrifugation at 4,000× for 20 min. The pellet was re-suspended in 3 mL 50 mM NH4HCO3, and then neutralized with 320 μL NH4OH. The resulting concentrated antimicrobial compound (CAC) was tested for its antimicrobial activity against susceptible and resistant strains as shown in TABLE 5.

A. Baumannii (MDR) = experiment: as above; assay type: cell-based, Acinetobacter baumannii; conditions: given as dilution ratio; antibiotics 1.28 mg/ml
Experimental: as §1

SMILES	antimicrobial activity S. aureus (MRSA) (S. aureus (MRSA))	antimicrobial activity A. Baumannii (MDR) (A. Baumannii (MDR))
CC1(C)S[C@@H]2[C@H](NC(=O)C(C(=O)O)c3ccccc3)C(=O)N2[C@H]1C(=O)O (stereo partly shown) [Carbenicillin]	No	No Inhibition
CC1(C)S[C@@H]2[C@H](NC(=O)[C@H](N)c3ccccc3)C(=O)N2[C@H]1C(=O)O [Ampicillin]	No	No Inhibition
